How the values were obtained:
Type in all cases: cell-based
[1] = system: mouse mammary tumor virus (MMTV) promoter; settings: for MMTV fold induction relative to solvent control: Table 2 A) transcriptional activators; for MMTV fold induction relative to solvent control / MMTV fold inhibition relative to solvent control: M10 cells, 6 hours, high-throughput screen; for MMTV fold inhibition relative to solvent control: Table 2 B) transcriptional inhibitors; for effect of steroids on luciferase expression in the MMTV reporter cell line M10: FIG. 43
Description: NIH/3T3 fibroblast cells (ATCC number CRL 1658) were used for transfection of plasmids containing the mouse mammary tumor virus (MMTV) promoter linked to firefly luciferase coding sequences (see below). Cells were propagated in Dulbecco's modified Eagle's medium (DMEM) obtained from Gibco, Grand Island, N.Y. and supplemented with 10% FCS. For high-throughput (HTP) screening, transfected NIH/3T3 clones were transferred to serum free defined medium consisting of Iscove's modified Eagle's medium (IMEM) and Ham's F12 medium (1:1) supplemented with growth factors, hormones and nutrients as described previously (43).
The firefly luciferase gene was removed from the plant expression plasmid pDO432 (33) (FIG. 1) as a 1.9 kb BamHI fragment and cloned into the BamHI site of pSVL (Pharmacia, Piscataway, N.J.), a mammalian expression vector containing the SV40 promoter. The resulting plasmid (pSVLuci; FIG. 2) was digested with XhoI and SalI to produce a 2.4 kb fragment containing the luciferase coding sequences and the SV40 late polyadenylation site. This fragment was inserted into the XhoI site of pMSG (Pharmacia, Piscataway, N.J.), a eukaryotic expression vector containing the MMTV promoter. The resulting MMTV promoter-luciferase fusion plasmid (pMLuci; FIG. 3) was used to transfect NIH/3T3 cells as described below (section E1). Similar constructs can be made using luciferase vectors from Clontech (Palo Alto, Calif.).
pMluci (FIG. 3) and pSV2Neo, an antibiotic resistance plasmid (34), were co-transfected into NIH/3T3 mouse fibroblast cells using the calcium phosphate precipitation method (15) with a commercially available kit (Pharmacia, Piscataway N.J.). Two days later, cells were transferred to media containing 0.4 mg/ml G418 and were grown for an additional 10-14 days. G418-resistant clones were isolated by standard methods. Once sufficient cell numbers were obtained, clones were analyzed based on several criteria: constitutive luciferase production, induction of luciferase expression by dexamethasone (1 μm, Sigma, St. Louis, Mo.), satisfactory attachment to microtiter plates used in the high-throughput screen (see Section G) and acceptable standard deviation in multiple luciferase expression assays (see below for assay protocol). This analysis was carried out using the luciferase assay conditions described in sections F and G. Of the clones which satisfied the above criteria for the high throuphput screen, one clone, M10, was selected for use.
(§1) Cell plating: Dynatech Microlite 96 well plates were custom pretreated for cell attachment by Dynatech Laboratories, Inc. (Chantilly, Va.). Alternatively, the 96 well plates were treated with 50 µl per well of human fibronectin (hFN, 15 µg/ml in PBS, Collaborative Research, Bedford, Mass.) overnight at 37 C. hFN-treated plates were washed with PBS using an Ultrawash 2 Microplate Washer (Dynatech Labs), to remove excess hFN prior to cell plating. M10, 532, and G21 cells maintained in their respective serum media (with 0.2 mg/ml G418) were washed with PBS, harvested by trypsinization, and counted using a hemocytometer and the Trypan Blue exclusion method according to protocols provided by Sigma, St. Louis, Mo. Chemical Company. Cells were then diluted into serum free defined media (with 0.2 mg/ml G418), and 0.2 ml of cell suspension per well was plated onto Dynatech treated plates (532 and G21) or hFN-treated plates (M10) using a Cetus Pro/Pette (Cetus, Emeryville Calif.). Plates were incubated overnight at 37 C in a humidified 5% CO2 atmosphere.
(§2) Addition of Chemicals to Cells: Chemicals from the Oncogene Science file were dissolved in DMSO at concentrations of 3-30 mg/ml. A liquid handling laboratory work station (RSP 5052, Tecan U.S. Chapel Hill, N.C.) was used to dilute the chemicals (three dilutions; 5 fold, 110 fold, and 726 fold). 10 11 of each dilution were added to each of quadruplicate samples of cells contained in the wells of 96-well Dyantech Microlite Plates. […]

[2] = system: human growth hormone promoter; settings: for hGH fold induction relative to solvent control: Table 2 A) transcriptional activators; for hGH fold induction relative to solvent control / hGH fold inhibition relative to solvent control: 532 cells, 6 hours, high-throughput screen; for hGH fold inhibition relative to solvent control: Table 2 B) transcriptional inhibitors
Description: A rat pituitary cell line, designated GC, (4, 25) was used for transfection of plasmids containing the human growth hormone promoter (see below) and was maintained in DMEM and Ham's F12 medium (1:1), supplemented with 12.5% FCS. For HTP screening, transfected GC clones were transferred to serum free defined medium consisting of DMEM and Ham's F12 medium (1:1) supplemented with growth factors, hormones and nutrients as described previously (17, 5).
The SalI-XhoI fragment of pSVLuci (FIG. 2) containing the luciferase coding sequences and the SV40 late polyadenylation site was inserted into pUC 8 (Biorad, Richmond, Calif.), which has been linearized by a SmaI/HinCII digestion and ligated to XhoI linkers (New England Biolabs, Beverly, Mass.). The new plasmid thus generated (pUXLuci; FIG. 4) was linearized by XhoI digestion followed by incubation with the Klenow fragment of E. coli DNA polymerase and the four deoxyribonucleotides to fill in the single-stranded ends of the vector. This linear (5.1 KB) form of pUXLuci was then ligated to the filled-in 550 bP HindIII-XbaI fragment of the plasmid phGH:CAT (FIG. 5) (25). Human growth hormone promoter sequences located on the HindIII-XbaI fragment were thus fused to the luciferase coding sequences located on pUXLuci generating the plasmid phGH-Luci (FIG. 6), which was used in transfections of GC cells as described below (Section E2).
phGH-LUCI (FIG. 6) and pRSVNeo, an antibiotic resistance plasmid (14), were co-transfected into GC rat pituitary cells as described above. Selection of G418-resistant cell clones was described above except for using a concentration of 0.2 mg/ml G418. Analysis of the cell clones was performed as above, except that known inducers of hGH expression (10-100 nM rat growth hormone releasing factor (rGRF, Bachem, Torrance, Calif.) and 10 μm forskolin (Sigma, St. Louis, Mo.) were used in place of dexamethasone. One clone, 532, was selected for further use in the high throughput screen.
as §1
Addition of Chemicals to Cells: Chemicals from the Oncogene Science file were dissolved in DMSO at concentrations of 3-30 mg/ml. A liquid handling laboratory work station (RSP 5052, Tecan U.S. Chapel Hill, N.C.) was used to dilute the chemicals (three dilutions; 5 fold, 110 fold, and 726 fold). 10 11 of each dilution were added to each of quadruplicate samples of cells contained in the wells of 96-well Dyantech Microlite Plates. Cell plates were then shaken on a microplate shaker (Dyantech, medium setting, 30 sec.) and incubated for 6 hours at 37 C, 5% CO2.
Bioluminescence Assay: After incubation with OSI-file chemicals, cell plates were washed 3 times with PBS using an Ultrawash 2 Microplate Washer (Dyantech Labs) and 75 µl of Lysis Buffer 2 were added to each well (Lysis Buffer 2 is the same as Lysis buffer 1 exept that the ATP and DTT concentrations were changed to 2.67 mM and 133 mM, respectively). […]

human G-CSF promoter = settings: for GCSF fold induction relative to solvent control: Table 2 A) transcriptional activators; for GCSF fold induction relative to solvent control / GCSF fold inhibition relative to solvent control: G21 cells, 6 hours, high-throughput screen; for GCSF fold inhibition relative to solvent control: Table 2 B) transcriptional inhibitors
Description: A human bladder carcinoma cell line (U5637, ATCC number HTB 9) was used for transfection of plasmids containing the human Granulocyte-Colony Stimulating Factor (G-CSF) promoter (see below) and was maintained in RPMI medium supplemented with 10% FCS. For HTP screening, transfected 5637 clones were transferred to a serum free defined medium identical to that used for the NIH/3T3 clones.
The sequences of OL-1, OL-2 and OL-5 recognize the G-CSF promoter region, OL-4 recognizes the first intron/exon junction and OL-3 recognizes sequences within the second exon (32). One of the clones isolated from the leukocyte library using these oligonucleotide probes contains a 3.5 kb SalI-BamHI fragment of G-CSF genomic sequence consisting of 3.3 kb of promoter sequence and two hundred base pairs of the coding region. This fragment was inserted into the vector pGEM-7-Zf (Promega, Madison, Wis.) which had previously been digested with SalI/BamHI, resulting in the vector pJM710 (FIG. 7). pJM710 was then digested with PstI, and the resulting 1.6 kb fragment containing G-CSF upstream sequences and the first 15 bases of the G-CSF leader sequence was inserted into the PstI site of pGEM5-Luci (FIG. 8) to generate pG-Lucl (FIG. 9). This construct was then used for transfection of 5637 human bladder carcinoma cells as described below in section E3. pGEM5-Luci (FIG. 8) had previously been constructed by inserting the […]/SalI fragment from pSVLuci (FIG. 2) containing the luciferase coding sequence and the SV40 late polyadenylation signal into pGEM 5-Zf (Promega, Madison Wis.) digested with XhoI/SalI.
pG-LUC1 (FIG. 9) and pRSVNeo were co-transfected into 5637 human bladder carcinoma cells as described above. Selection of G418 resistant clones was as described above except for using a concentration of 0.1 mg/ml G418. Analysis of cell clones was performed as above except that a known inducer of G-CSF expression (1-5 µg/ml lipopolysaccharide (LPS), E. coli serotype 055:b5, Difco, Detroit, Mich. or Sigma, St. Louis, Mo.) was used in place of dexamethasone.
as §1, §2

Row | Compound | hGH fold induction relative to solvent control [2] | MMTV fold induction relative to solvent control [1] | GCSF fold induction relative to solvent control (human G-CSF promoter) | also measured
1 | C[C@@H]1C[C@H]2[C@@H]3CCC4=CC(=O)C=C[C@]4(C)[C@@]3(F)[C@@H](O)C[C@]2(C)[C@@]1(O)C(=O)CO [dexamethasone, reference compound] | – | – | – | stimulation of clone M10 by known inducer ([1]; 1 μm dexamethasone): 11.6 fold
2 | CC(CCl)CBr (single isomer, unassigned) [Chemical 2096] | 0.61 fold | 0.89 fold | 3.27 fold | –
3 | Nc1nc(=O)n(C2CC(O)C(CO)O2)cc1Br (stereo not shown) [Chemical 542] | 1.08 fold | 1.26 fold | 6.28 fold | –
4 | CC12CCC(CC1=O)C2(C)C (stereo not shown) [Chemical 1720] | – | – | – | hGH fold inhibition relative to solvent control [2]: 4.76 fold; MMTV fold inhibition relative to solvent control [1]: 0.66 fold; GCSF fold inhibition relative to solvent control (human G-CSF promoter): 0.65 fold
5 | Cc1cc(-c2ccc(S(=O)(=O)[O-])cc2)c2ccc3c(-c4ccc(S(=O)(=O)[O-])cc4)cc(C)nc3c2n1.O.[Na+].[Na+] [Chemical 189] | 1.47 fold | 2.80 fold | 1.06 fold | –
6 | CC(=O)[C@H]1CC[C@H]2[C@@H]3CCC4=CC(=O)CC[C@]4(C)[C@H]3CC[C@]12C [progesterone, reference compound] | – | – | – | effect of steroids on luciferase expression in the MMTV reporter cell line M10 [1]: did not
7 | C1CCNCC1 [Chemical 759] | – | – | – | GCSF fold inhibition relative to solvent control (human G-CSF promoter): 0.64 fold
8 | CC1(C(=O)OCC(F)(F)C(F)(F)C(F)(F)C(F)(F)C(F)(F)C(F)F)CCC(C(=O)OCC(F)(F)C(F)(F)C(F)(F)C(F)(F)C(F)(F)C(F)F)C1(C)C (stereo not shown) [Chemical 1592] | 0.74 fold | 1.34 fold | 3.20 fold | –
9 | O=C(OC(C(=O)O)C(OC(=O)c1ccccc1)C(=O)O)c1ccccc1 (stereo not shown) [Chemical 578] | – | – | – | hGH fold inhibition relative to solvent control [2]: 4.00 fold; MMTV fold inhibition relative to solvent control [1]: 0.91 fold; GCSF fold inhibition relative to solvent control (human G-CSF promoter): 0.65 fold
10 | CC(=O)[O-].Nc1ccc2nc3c(cc(N)c4ccccc43)[o+]c2c1 [Chemical 1776] | 0.15 fold | 1.36 fold | 3.50 fold | –
11 | Nc1ccc2nc3ccc(N)cc3[s+]c2c1 [Chemical 836] | 0.23 fold | 0.58 fold | 3.20 fold | –
12 | Cc1cc(=O)oc2c(CN(CC(=O)O)CC(=O)O)c(O)ccc12 [Chemical 1712] | – | – | – | GCSF fold inhibition relative to solvent control (human G-CSF promoter): 0.64 fold
13 | lipopolysaccharide [reference compound] | – | – | – | stimulation of clone G21 by known inducer (human G-CSF promoter; 5 µg/ml lipopolysaccharide): 5.7 fold
14 | CC1(C)C2CCC1(C)C(O)C2 (stereo not shown) [Chemical 1635] | – | – | – | hGH fold inhibition relative to solvent control [2]: 9.09 fold; MMTV fold inhibition relative to solvent control [1]: 0.99 fold; GCSF fold inhibition relative to solvent control (human G-CSF promoter): 0.71 fold
15 | rat growth hormone releasing factor: rat growth hormone releasing factor (rGRF, Bachem), known inducer of hGH expression (HADAIFTSSYRRILGQLYARKLLHEIMNRQQGERNQEQRSRFN; Somatoliberin; UniProt P09916 31-73, looked up) [reference compound] | – | – | – | stimulation of clone 532 by known inducer ([2]; 100 nM rat growth hormone releasing factor): 2.2 fold
16 | C[C@]12CCC(=O)C=C1CC[C@@H]1[C@@H]2[C@@H](O)C[C@]2(C=O)[C@@H](C(=O)CO)CC[C@@H]12 [aldosterone, reference compound] | – | – | – | effect of steroids on luciferase expression in the MMTV reporter cell line M10 [1]: stimulates clone M10
17 | CC1(C)OC2CC3C4CCC5=CC(=O)C=CC5(C)C4(F)C(O)CC3(C)C2(C(=O)CO)O1 (stereo not shown) [Chemical 848] | 1.28 fold | 2.43 fold | 0.75 fold | –
